{"source": "patent US11147219B2", "about": "“Methods and systems for growing plants using silicate-based substrates, cultivation of enhanced photosynthetic productivity and photosafening by utilization of exogenous glycopyranosides for endogenous glycopyranosyl-protein derivatives, and formulations, process and systems for the same” (Innovation Hammer, LLC, priority 2011, dated 2021)", "key": {"Radish seedlings": {"system": "Radish seedlings", "assay": "Radish seedling assay, immersion in nutrient solution with α-mannosides", "format": "in vivo", "details": "for growth response compared to Nutrient Control (visual): 1 mM TAM, 100 μM MP, 25 μM to 500 μM MeM, 10 μM APM", "description": "Plants were cultured in research facilities and consistency of response to treatments was achieved by supplementation with chelated calcium and manganese. All plants were regularly given modified Hoagland water-culture nutrients. […] Controls were placed in the same location and all plants were given the same irrigation, fertilizers, and handling, but without the experimental compounds. Plants were matched to controls and treated within a week of emergence of cotyledon and true leaves. The performance of compounds was evaluated by comparing means of individual dry weights of shoots and roots. Statistics applied two-tailed Student's t-test with p-values significant within 95% confidence intervals. Counts of populations are “n” values and standard error is denoted “±SE.” Specialty chemicals included the following: tetramethyl-β-D-glucoside (TMG); tetraacetyl-D-glucopyranose (TAG); pentaacetyl-α-D-mannopyranose (MP); p-amino-phenyl-α-D-mannoside (APM); methyl-α-D-mannoside (MeM) and methylglucoside (MeG). MPG was synthesized. 2,3,4,6-tetra-O-acetyl-D-mannopyranose (αβ) was utilized. As required, MP and APM were dissolved in a lower aliphatic alcohol prior to dilution in aqueous media.\nAssay—Radish seedlings were treated with α-mannosides after emergence of radicles. Seedlings were matched and transferred to Nutrient Control or treatment solutions. Assays were maintained under environmental conditions as follow: Photosynthetically active radiation 100 μEin·m^−2·sec^−1, diel cycle of 16:8 h light:dark, 26:26° C."}, "[1]": {"system": "radish \"Cherry Bell\" Raphanus sativus L.", "assay": "Greenhouse foliar treatment of radish, root dry weight", "format": "in vivo", "details": "for active concentration applied for growth response: foliar, radish", "description": "Plant responses to formulations of an alkyl-α-D-mannopyranose and an electron donating-aryl-α-D-mannopyranose were consistent with preferred binding tendencies to displace glucose from storage. Plants were maintained in automated greenhouses controlled for temperature, light and circulation. Environmental conditions during the course of the studies averaged 13:11 hour L:D photoperiod, 25°:20° C. day:night and 20% to 80% relative humidity. Sunlight was supplemented with electrical illumination to achieve photosynthetically active radiation levels ranging from 350 to 600 μmol photons·m^−2·s^−1 at the level of the phylloplane. Solutions for treated and control plants were applied within an hour, otherwise subjecting all plants to identical conditions consistent with good laboratory practices. Solutions applied to controls included nutrients and surfactants identical to the treatment solution, but without the active compound. General supplementation of foliar formulations included the following: 10-100 mM ammonium salt; 1-6 ppm manganese, Mn-EDTA; and 5-10 ppm calcium, Ca-EDTA. For example, foliar solutions of 0.3 mM p-aminophenylmannopyranoside, hereafter referred to as APM, were supplemented with 23 mM ammonium sulfate, (NH4)2SO4, 3 ppm Mn and 6 ppm Ca; and Nutrient Control contained 23 mM (NH4)2SO4, 3 ppm Mn and 6 ppm Ca. The foliar concentrations of Mn and Ca were higher than those specified previously because of the low volumes of foliar applications relative to hydroponic root immersion volumes, and they were particularly effective in combination with foliar applications of compounds because they supported high rates of productivity in the treated plants without phytotoxicity. Compounds for experimentation included the following: methyl-α-D-mannopyranoside (MeM), APM, and methyl-α-D-glucopyranoside (MeG). All foliar solutions were formulated with 1 gm/liter surfactant blend consisting of 0.5 gram DowCorning Q5211 dispersed into 1.5 grams BASF Pluronic L62. As a matter of course, untreated controls that foliar nutrients and wetting agents were not introducing artifacts. The standard volume for foliar application of experimental treatments was 200 liters/hectare. Identical volumes of foliar spray per tray of plant cultures were applied mechanically in a single pass. Controls were placed in the same location and given identical irrigation and handling as the treated plants. To compare the effects of treatments under tightly controlled conditions, plants were cultured, harvested, cleaned and weighed as per previously described methods. Treated plants were statistically analyzed in comparisons against controls. Each survey population held sufficient replicate sample numbers to make meaningful statistical analyses utilizing SPSS® software. Significance was determined at the 95% confidence interval (CI) of the difference. Counts of population numbers are denoted as “n” values. For experiments, radish “Cherry Bell” Raphanus sativus L., a root crop was planted and treated. […] Therefore, least concentrations were selected for statistical experimentation; and 200 l/ha foliar 1 mM MeM or 0.3 mM APM in nutrient-supplemented formulations were applied to 5 cm tall sprouts; while, Nutrient Controls were given foliar applications of identical solutions without the α-D-glycopyranosides; and no foliar solutions were applied to untreated controls which were otherwise identically cultivated and irrigated. For our quantification experiments, when improvements of root productivity over those of nutrient controls were visibly discernible 12 d after treatment, all populations of controls and treatments were harvested, and individual dry weights of treatment and control populations were analyzed."}, "Crocus": {"system": "Crocus", "assay": "Rooted Crocus cultivated in 700 μm silicate microbeads, treated with formulation", "format": "in vivo", "details": "0.3 mM APM with 3 ppm Mn, 6 ppm Ca; Crocus in 700 μm microbeads", "description": "Individual plants were started from seeds, bulbs, or vegetative clones, inserted into containers of pre-moistened microbeads. Seedlings included ryegrass and corn; bulbs were of Crocus and paperwhite narcissus; and vegetative cuttings were from Coleus. Seeds generally germinated and were selected according to day of emergence of first roots as control and treatment sets. Roots were treated thereafter.\nPlants were cultivated under controlled environmental conditions as follow: GE Ecolux® plant and aquarium F40T12 fluorescent illumination, photosynthetically active radiation (PAR) of 100 μEin·m^−2·s^−1, diel cycle of 16:8 h light:dark, 28:26° C., 10% to 20% relative humidity. Indoxyl glycopyranoside (IG) was formulated in water and applied and controls were given equal volumes of water without IG. […] Clear plastic 500 cc containers, perforated for drainage, were filled to a depth of 10 cm with up to 900 grams of microbeads each. Initially, basal plates of bulbs were immersed 1 cm into moistened 700 μm nmd silicate beads to initiate rooting. […] Controls were treated with addition of 0.1 ml water to their media. After 8 h uptake of the treatments, fertigation resumed in a manner consistent with pH-control. […]\nFor all experiments, at 7 d to 14 d after treatment, microbeads were saturated with water. […] For paperwhites, volumes of entire roots were measured by displacement of water in glass beakers."}, "radish": {"system": "radish", "assay": "Foliar application to radish grown hydroponically in 700 μm microbeads", "format": "in vivo", "details": "with 3 ppm Mn, 6 ppm Ca", "description": "Approximately 200 grams of beads/cell filled individual 100 cc cells of plastic flats. Roots of radish are cultivated hydroponically by immersion of roots in 700 μm nmd shot, pre-moistened with buffered nutrient solution that included soluble Mn and Ca, and plants were allowed to grow for 72 h prior to treatment with aminophenyl-α-D-mannopyranoside.\n4-aminophenyl-α-D-mannopyranoside was dissolved in water (APM needs first to be solubilized in a small volume (1 ml) of ethanol prior to being added into water) with 3 ppm Mn as EDTA, 6 ppm Ca as EDTA, 10% isopropyl alcohol and 1.5 g/L Pluronic L-62. A solution of the formulation was applied to radish foliage. When compared to an identical control formulation without the aminophenyl-α-D-mannopyranoside, the above formulation provided a 20% root increase. For aminophenyl-α-D-mannopyranoside, the proper dose for radish is between 1 to 100 μg per plant and preferably between 5 to 50 μg per plant. This is the equivalent to an application of 75 to 100 gallons per acre at a preferred volume of 100 gallons per acre of up to 2 gm/liter."}, "[2]": {"system": "radish (Raphanus sativus L., cultivar \"Cherry Bell\")", "assay": "Radish seed germination and seedling growth, nutrient omission media", "format": "in vivo", "description": "Treatment of seeds and seedlings by aqueous solutions is exemplified by mannosides supplemented with soluble divalent cations in complete mannosides formulations. […] Benefits of such exemplary seed priming methods are as follows: Germination and early growth of radish (Raphanus sativus L., cultivar “Cherry Bell”) and Swiss Chard (Beta vulgaris subspecies cicla L., cultivar “Fordhook® Giant”) were tested for response to α-mannosides supplemented with Ca^2+ and/or Mn^2+. Rapid assays of radish seed germination and growth used hydroponic cultures with no solid medium; longer experiments with Swiss Chard used a 2-5 mm substratum of 700 μm diameter glass microbeads. Neutralization of glass microbeads may be undertaken with dilute mildly acidic solution titrated to pH 6; for example, with mineral acids such as hydrochloric acid, sulfuric acid, nitric acid, and the like; organic acids such as uronic, citric, malic, lactic, salicylic, ascorbic, succinic, oxaloacetic, ketoglutaric, fumaric acids, and amino acids, and the like; artificial biological buffering agents such as TRIS, BIS TRIS, MES, MOPS, HEPES, and the like; fertilizers; and most preferably, phosphates; and the most highly preferred compounds are combinations of compounds in a pH 6-buffer that provide major nutrients for plants, such as MAP with DKP or DAP with MKP; and the like. When test medium was added, the glass microbeads formed an even layer, drawing liquid to the surface by capillary action. Seeds were examined to exclude aberrantly large, small, or damaged seeds, and were placed on the surface of the substratum. For experiments using post-germination seedlings, seeds were germinated in deionized water prior to exposure to nutrient media. A seed with an emerged radicle >1 mm was recorded as germinated, and germinated seeds were counted daily, until 95% germination. There was no visible evidence of either desiccation or waterlogging effects. Glass microbeads were removed by immersion and agitation in water, or manually with fine forceps. Harvested plants were oven-dried to determine dry weight. Treatment and control solutions were prepared by dissolving nutrients in deionized ultrapure water.\nGrowth media were based on omission or inclusion of glycosides and targeted divalent cations. Triose is the abbreviation for α-1,3-α-1,6 mannotriose) and MEM is methyl-α-D-mannoside. Terminology used herein indicates the omission or inclusion of nutrients: 000=control medium with no glycoside, Ca^2+ or Mn^2+; MeMOO=medium with MeM, but no Ca^2+ or Mn^2+; MeMCaO=medium with MeM and Ca^2+, but no Mn^2+, OCaMn=medium with no MeM, but with Ca^2++Mn^2+; and so on. Similar terminology is used for media containing triose. Results cited are means±SE. […]"}, "plants": {"system": "plants", "assay": "Relative potency of glycosides on plants (stated, no method)", "details": "in vivo"}}, "note": "Entries after “also recorded” stand apart in the source; their conditions may differ."}
{"smiles": "CC(=O)OC[C@H]1OC(O)[C@@H](OC(C)=O)[C@@H](OC(C)=O)[C@@H]1OC(C)=O", "note": "(stereo partly drawn) [TAM, 2,3,4,6-tetra-O-acetyl-D-mannopyranose (αβ)]", "values": [{"measurement": "mean dry weight of whole plants", "setting": "Radish seedlings; 100 μM, 48 h", "value": 8.1, "unit": "mg"}, {"measurement": "difference of mean dry weight from the Nutrient Control", "setting": "Radish seedlings; 100 μM, 48 h, p=0.11", "value": "no significant difference"}, {"measurement": "mean dry weight of whole plants", "setting": "Radish seedlings; 1 mM, 48 h", "value": 8.8, "unit": "mg"}, {"measurement": "growth response compared to Nutrient Control (visual)", "setting": "Radish seedlings; 48 h", "value": "advanced growth responses"}]}
{"smiles": "CC(=O)OC[C@H]1O[C@H](OC(C)=O)[C@@H](OC(C)=O)[C@@H](OC(C)=O)[C@@H]1OC(C)=O", "note": "[MP, pentaacetyl-α-D-mannopyranose]", "values": [{"measurement": "mean dry weight of whole plants", "setting": "Radish seedlings; 100 μM, 48 h", "value": 8.2, "unit": "mg"}, {"measurement": "growth response compared to Nutrient Control (visual)", "setting": "Radish seedlings; 48 h", "value": "advanced growth responses"}, {"measurement": "potency compared with the mixed anomers", "setting": "Radish seedlings; effective doses 100 μM MP and 1 mM TAM", "value": "higher potency"}]}
{"smiles": "Nc1ccc(O[C@H]2O[C@H](CO)[C@@H](O)[C@H](O)[C@@H]2O)cc1", "note": "[APM, 4-amino-phenyl-α-D-mannopyranoside]", "values": [{"measurement": "root mean dry weight over the Nutrient Control", "setting": "[1]; foliar 0.3 mM with nutrients", "value": "significant (n=72; p=0.003) increase"}, {"measurement": "root mean dry weight increase over controls", "setting": "[1]; foliar 0.3 mM, 200 l/ha, harvest 12 d after treatment, n=72, p=0.003", "value": "approximately 20%"}, {"measurement": "active concentration applied for growth response", "setting": "[1]", "value": 0.3, "unit": "mM"}, {"measurement": "mean dry weight of whole plants", "setting": "Radish seedlings; 5 μM, 48 h", "value": 9.4, "unit": "mg"}, {"measurement": "difference of mean dry weight from the Nutrient Control", "setting": "Radish seedlings; 5 μM, 48 h, p=0.06", "value": "not significantly different; also recorded: no significant difference"}, {"measurement": "mean dry weight of whole plants", "setting": "Radish seedlings; 10 μM, 48 h", "value": 10.3, "unit": "mg"}, {"measurement": "enhancement of mean dry weight over Nutrient Control", "setting": "Radish seedlings; 100 μM, 48 h", "value": 10, "unit": "%"}, {"measurement": "mean dry weight of whole plants", "setting": "Radish seedlings; 100 μM, 48 h", "value": 11, "unit": "mg"}, {"measurement": "growth response compared to Nutrient Control (visual)", "setting": "Radish seedlings; 48 h", "value": "advanced growth"}, {"measurement": "root and shoot development / productivity compared to Control", "setting": "Crocus", "value": "clearly advanced productivity; also recorded: advanced root and shoot development"}, {"measurement": "root increase compared to identical control formulation", "setting": "radish", "value": 20, "unit": "%"}]}
{"smiles": "OC[C@H]1O[C@H](OC[C@H]2OC(O)[C@@H](O)[C@@H](O[C@H]3O[C@H](CO)[C@@H](O)[C@H](O)[C@@H]3O)[C@@H]2O)[C@@H](O)[C@@H](O)[C@@H]1O", "note": "(stereo partly drawn) [triose, α-1,3-α-1,6 mannotriose]", "values": [{"measurement": "seedling growth compared with no triose", "setting": "[2]; 1 μM triose, lacking Ca2+", "value": "comparable to seedlings grown with no triose"}, {"measurement": "mean dry weight compared with medium with no triose", "setting": "[2]; 0.3, 1 or 10 μM triose with Mn2+ and Ca2+, 1 day treatment, second day", "value": "significantly greater"}, {"measurement": "concentration at which no growth enhancement was observed", "setting": "[2]; radish seedlings, complete media", "value": "less than 0.3 μM"}]}
{"smiles": "CO[C@H]1O[C@H](CO)[C@@H](O)[C@H](O)[C@H]1O", "note": "[MeG, methyl-α-D-glucopyranoside, reference compound]", "values": [{"measurement": "productivity over nutrient and untreated controls", "setting": "[1]; foliar 129 mM with Ca, Mn and ammoniacal nitrogen", "value": "consistently increased productivities"}, {"measurement": "active concentration applied for growth response", "setting": "[1]", "value": 129, "unit": "mM"}]}
{"smiles": "OC[C@H]1O[C@H](O[C@H]2[C@H](O)[C@@H](O)C(O)O[C@@H]2CO)[C@H](O)[C@@H](O)[C@@H]1O", "note": "(mixture of isomers) [maltose]", "values": [{"measurement": "potency relative to alpha-MeG", "setting": "plants", "value": "lower potency"}, {"measurement": "potency relative to beta-MeG", "setting": "plants", "value": 9, "unit": "×"}]}
